Measurements published in patent publication US9493426B2, “Quinazolinone derivatives useful as FGFR kinase modulators” (priority 2013, dated 2016).
pIC50: −log10 of the molar value.

Target: T1, Ba/F3-KDR-transfected cells (Homo sapiens, UniProt P35968, cells depend on it, form not given)
T1 construct: BAF3-KDR (MIN IL3 pIC50); other: minus IL3; 24 hours, Alamar Blue
Experiment: Ba/F3-KDR (minus IL3 or plus IL3) cellular proliferation assay
Assay type: cell-based
Conditions: 24 hours, Alamar Blue
Experimental: Ba/F3-KDR (Minus IL3 or Plus IL3) (Cellular Proliferation Assay)
(§1) In a 384 well plate, 100 nl of compound dilution in DMSO was sprayed before adding 50 μl cell culture medium (phenol red free RPMI-1640, 10% FBS, 2 mM L-Glutamine and 50 μg/ml Gentamycin) containing 20000 cells per well of Ba/F3-KDR-transfected cells. Cells were put in an incubator at 37° C. and 5% CO2. After 24 hours, 10 μl of Alamar Blue solution (0.5 mM K3Fe(CN)6, 0.5 mM K4Fe(CN)6, 0.15 mM Resazurin and 100 mM Phosphate Buffer) was added to the wells, incubated for 4 hours at 37° C. and 5% CO2 before RFU's (Relative Fluorescence Units) (ex. 540 nm., em. 590 nm.) were measured in a fluorescence plate reader.
(§2) In this assay, the inhibitory effect of different compound concentrations (range 10 μM to 0.1 nM) was determined and used to calculate an IC50 (M) and pIC50 (−log IC50) value. As a counterscreen the same experiment was performed in the presence of 10 ng/ml murine IL3.

T1 sequence (P35968 whole entry, looked up, change not shown): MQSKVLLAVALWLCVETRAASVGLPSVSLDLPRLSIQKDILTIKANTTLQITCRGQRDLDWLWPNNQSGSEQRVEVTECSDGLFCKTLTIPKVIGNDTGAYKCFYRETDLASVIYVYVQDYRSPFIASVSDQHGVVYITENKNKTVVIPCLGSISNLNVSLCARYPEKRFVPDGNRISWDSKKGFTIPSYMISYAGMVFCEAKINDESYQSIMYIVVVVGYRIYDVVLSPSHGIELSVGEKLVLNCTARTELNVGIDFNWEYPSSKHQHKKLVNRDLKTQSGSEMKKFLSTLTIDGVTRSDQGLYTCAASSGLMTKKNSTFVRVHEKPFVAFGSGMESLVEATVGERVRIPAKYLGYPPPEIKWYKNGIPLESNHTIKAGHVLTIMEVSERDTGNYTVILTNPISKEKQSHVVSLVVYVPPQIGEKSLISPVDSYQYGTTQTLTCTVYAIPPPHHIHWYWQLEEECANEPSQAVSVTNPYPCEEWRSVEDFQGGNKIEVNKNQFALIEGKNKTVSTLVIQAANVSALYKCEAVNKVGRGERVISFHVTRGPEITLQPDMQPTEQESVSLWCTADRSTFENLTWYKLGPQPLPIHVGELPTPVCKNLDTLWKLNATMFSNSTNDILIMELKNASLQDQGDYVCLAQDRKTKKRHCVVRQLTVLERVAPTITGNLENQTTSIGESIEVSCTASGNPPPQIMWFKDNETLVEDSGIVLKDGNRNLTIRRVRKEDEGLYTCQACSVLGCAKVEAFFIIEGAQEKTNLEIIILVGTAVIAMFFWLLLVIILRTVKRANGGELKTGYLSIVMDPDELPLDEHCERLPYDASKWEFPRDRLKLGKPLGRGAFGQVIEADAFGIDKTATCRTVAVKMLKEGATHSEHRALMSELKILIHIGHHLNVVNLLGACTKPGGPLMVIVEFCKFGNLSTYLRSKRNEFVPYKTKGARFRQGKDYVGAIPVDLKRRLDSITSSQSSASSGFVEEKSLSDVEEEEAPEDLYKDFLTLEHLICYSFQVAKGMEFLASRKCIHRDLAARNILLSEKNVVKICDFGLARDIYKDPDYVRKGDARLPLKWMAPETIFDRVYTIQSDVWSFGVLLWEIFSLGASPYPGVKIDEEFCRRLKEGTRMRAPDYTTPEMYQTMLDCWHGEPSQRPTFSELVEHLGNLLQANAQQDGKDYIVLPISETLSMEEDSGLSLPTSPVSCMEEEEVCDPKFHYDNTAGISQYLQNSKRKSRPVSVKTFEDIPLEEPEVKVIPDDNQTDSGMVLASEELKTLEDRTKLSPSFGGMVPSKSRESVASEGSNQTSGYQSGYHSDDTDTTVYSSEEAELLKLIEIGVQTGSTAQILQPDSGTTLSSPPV

Structure (SMILES)	BAF3-KDR (MIN IL3 pIC50)
COc1cc(OC)c(F)c(N(CCO)c2ccc3ncn(-c4cnn(C)c4)c(=O)c3c2)c1F [Compound 18]	5.6
COc1cc(OC)cc(N(CCO)c2ccc3ncn(-c4cnn(C)c4)c(=O)c3c2)c1 [Compound 8]	<5
CNCCN(c1ccc2ncn(-c3cnn(C)c3)c(=O)c2c1)c1c(F)c(OC)cc(OC)c1F [Compound 20]	6.0
COc1cc(OC)c(F)c(N(Cc2ncc[nH]2)c2ccc3ncn(-c4cnn(C)c4)c(=O)c3c2)c1F [Compound 22]	5.3

Target: FGFR3 (h) (Homo sapiens, UniProt P22607)
Experiment: FGFR3 (enzymatic assay), TR-FRET
Assay type: biochemical
Conditions: not given

Structure (SMILES)	pIC50
COc1cc(OC)c(F)c(N(CCO)c2ccc3ncn(-c4cnn(C)c4)c(=O)c3c2)c1F [Compound 18]	8.80
CNCCN(c1ccc2ncn(-c3cnn(C)c3)c(=O)c2c1)c1c(F)c(OC)cc(OC)c1F [Compound 20]	7.90

Same assay, conditions: 25 μM ATP; pIC50 = -log IC50 (M); read-out: FGFR3 pIC50 (converted)

Structure (SMILES)	IC50
COc1cc(OC)cc(N(CCO)c2ccc3ncn(-c4cnn(C)c4)c(=O)c3c2)c1 [Compound 8]	2e-08 M
COc1cc(OC)c(F)c(N(Cc2ncc[nH]2)c2ccc3ncn(-c4cnn(C)c4)c(=O)c3c2)c1F [Compound 22]	3.16e-09 M

Target: T2, Ba/F3-FGFR1-transfected cells (Homo sapiens, UniProt P11362)
T2 construct: other: minus IL3; 24 hours, Alamar Blue
Experiment: Ba/F3-FGFR1 (minus IL3 or plus IL3) cellular proliferation assay
Assay type: cell-based
Conditions: 24 hours, Alamar Blue
Experimental: Ba/F3-FGFR1 (Minus IL3 or Plus IL3) (Cellular Proliferation Assay)
as §1, with “Ba/F3-FGFR1-transfected” for “Ba/F3-KDR-transfected”
as §2

T2 sequence (P11362 whole entry, change not shown): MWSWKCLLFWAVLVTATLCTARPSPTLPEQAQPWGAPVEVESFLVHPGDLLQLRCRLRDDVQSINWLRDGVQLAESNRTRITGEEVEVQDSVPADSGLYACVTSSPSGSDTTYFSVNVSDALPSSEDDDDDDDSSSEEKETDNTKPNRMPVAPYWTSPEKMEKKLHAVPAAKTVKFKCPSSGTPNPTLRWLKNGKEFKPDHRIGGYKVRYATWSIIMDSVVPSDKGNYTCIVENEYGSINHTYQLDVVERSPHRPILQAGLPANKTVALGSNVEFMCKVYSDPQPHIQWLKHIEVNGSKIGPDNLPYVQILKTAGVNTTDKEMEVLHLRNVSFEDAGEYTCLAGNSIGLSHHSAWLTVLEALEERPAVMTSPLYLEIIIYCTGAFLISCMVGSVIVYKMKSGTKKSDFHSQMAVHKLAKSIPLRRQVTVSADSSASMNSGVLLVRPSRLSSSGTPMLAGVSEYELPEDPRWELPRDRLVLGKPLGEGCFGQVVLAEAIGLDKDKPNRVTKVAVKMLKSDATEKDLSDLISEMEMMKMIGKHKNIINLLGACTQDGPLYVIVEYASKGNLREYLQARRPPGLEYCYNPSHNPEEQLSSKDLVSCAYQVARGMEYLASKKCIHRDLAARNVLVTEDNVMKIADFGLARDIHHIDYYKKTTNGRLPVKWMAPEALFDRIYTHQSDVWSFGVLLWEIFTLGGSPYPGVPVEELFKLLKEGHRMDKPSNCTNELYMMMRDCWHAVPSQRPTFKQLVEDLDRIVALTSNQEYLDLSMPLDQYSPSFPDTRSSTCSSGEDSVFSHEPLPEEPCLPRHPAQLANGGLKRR

Structure (SMILES)	BAF3-FGFR1 (MIN IL3 pIC50)
COc1cc(OC)c(F)c(N(CCO)c2ccc3ncn(-c4cnn(C)c4)c(=O)c3c2)c1F [Compound 18]	7.2
COc1cc(OC)cc(N(CCO)c2ccc3ncn(-c4cnn(C)c4)c(=O)c3c2)c1 [Compound 8]	5.4
CNCCN(c1ccc2ncn(-c3cnn(C)c3)c(=O)c2c1)c1c(F)c(OC)cc(OC)c1F [Compound 20]	7.6
COc1cc(OC)c(F)c(N(Cc2ncc[nH]2)c2ccc3ncn(-c4cnn(C)c4)c(=O)c3c2)c1F [Compound 22]	6.8

Target: FGFR1 (h) (Homo sapiens, UniProt P11362)
Experiment: FGFR1 (enzymatic assay), TR-FRET
Assay type: biochemical
Conditions: not given

Sequence of FGFR1 (h) (P11362 22-822): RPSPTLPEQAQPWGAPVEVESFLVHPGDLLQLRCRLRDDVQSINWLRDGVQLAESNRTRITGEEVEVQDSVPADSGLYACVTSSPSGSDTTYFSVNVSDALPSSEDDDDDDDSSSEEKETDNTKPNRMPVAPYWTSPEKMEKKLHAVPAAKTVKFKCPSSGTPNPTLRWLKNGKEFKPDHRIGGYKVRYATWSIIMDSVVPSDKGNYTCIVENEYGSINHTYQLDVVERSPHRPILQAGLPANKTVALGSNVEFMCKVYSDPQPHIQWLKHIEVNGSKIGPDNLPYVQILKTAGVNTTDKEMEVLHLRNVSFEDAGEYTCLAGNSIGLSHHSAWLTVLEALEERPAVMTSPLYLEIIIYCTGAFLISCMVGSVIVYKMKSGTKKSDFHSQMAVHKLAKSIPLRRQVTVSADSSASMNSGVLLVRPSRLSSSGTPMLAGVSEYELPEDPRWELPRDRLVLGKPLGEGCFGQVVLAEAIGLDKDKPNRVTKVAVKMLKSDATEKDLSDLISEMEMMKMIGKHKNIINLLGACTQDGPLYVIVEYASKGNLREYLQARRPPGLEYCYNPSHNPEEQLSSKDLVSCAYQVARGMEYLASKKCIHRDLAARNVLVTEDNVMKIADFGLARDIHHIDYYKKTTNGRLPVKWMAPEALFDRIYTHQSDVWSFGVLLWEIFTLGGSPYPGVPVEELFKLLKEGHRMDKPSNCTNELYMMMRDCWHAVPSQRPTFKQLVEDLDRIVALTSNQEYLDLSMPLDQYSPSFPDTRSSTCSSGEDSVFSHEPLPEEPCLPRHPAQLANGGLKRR

Structure (SMILES)	pIC50
COc1cc(OC)c(F)c(N(CCO)c2ccc3ncn(-c4cnn(C)c4)c(=O)c3c2)c1F [Compound 18]	8.80
COc1cc(OC)cc(N(CCO)c2ccc3ncn(-c4cnn(C)c4)c(=O)c3c2)c1 [Compound 8]	7.30
CNCCN(c1ccc2ncn(-c3cnn(C)c3)c(=O)c2c1)c1c(F)c(OC)cc(OC)c1F [Compound 20]	8.00
COc1cc(OC)c(F)c(N(Cc2ncc[nH]2)c2ccc3ncn(-c4cnn(C)c4)c(=O)c3c2)c1F [Compound 22]	8.40

Target: FGFR4 (h) (Homo sapiens, UniProt P22455)
Experiment: FGFR4 (enzymatic assay), TR-FRET
Assay type: biochemical
Conditions: 5 μM ATP; pIC50 = -log IC50 (M); read-out: FGFR 4 pIC50 (converted)

Sequence of FGFR4 (h) (P22455 22-802): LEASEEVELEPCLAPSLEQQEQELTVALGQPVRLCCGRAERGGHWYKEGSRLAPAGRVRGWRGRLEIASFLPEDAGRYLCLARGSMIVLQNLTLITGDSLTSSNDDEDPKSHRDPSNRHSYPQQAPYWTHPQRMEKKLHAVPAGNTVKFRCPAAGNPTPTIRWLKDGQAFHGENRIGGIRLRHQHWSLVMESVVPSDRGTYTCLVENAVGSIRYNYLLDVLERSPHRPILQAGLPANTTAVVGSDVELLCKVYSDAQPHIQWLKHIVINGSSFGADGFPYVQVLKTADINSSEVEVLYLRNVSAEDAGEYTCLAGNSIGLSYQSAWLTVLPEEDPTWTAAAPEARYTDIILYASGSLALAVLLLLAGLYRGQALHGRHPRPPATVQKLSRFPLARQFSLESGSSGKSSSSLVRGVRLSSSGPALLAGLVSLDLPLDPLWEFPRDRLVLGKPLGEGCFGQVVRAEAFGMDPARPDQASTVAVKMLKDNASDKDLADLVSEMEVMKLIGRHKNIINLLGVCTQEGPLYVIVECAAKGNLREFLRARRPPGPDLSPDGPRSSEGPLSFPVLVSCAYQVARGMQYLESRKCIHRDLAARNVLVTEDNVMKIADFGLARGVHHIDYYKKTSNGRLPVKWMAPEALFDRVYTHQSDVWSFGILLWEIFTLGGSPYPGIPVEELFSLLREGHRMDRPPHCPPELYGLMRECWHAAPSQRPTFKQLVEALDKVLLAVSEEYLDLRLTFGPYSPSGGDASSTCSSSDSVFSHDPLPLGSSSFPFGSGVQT

Structure (SMILES)	IC50
COc1cc(OC)c(F)c(N(CCO)c2ccc3ncn(-c4cnn(C)c4)c(=O)c3c2)c1F [Compound 18]	5.01e-09 M
COc1cc(OC)cc(N(CCO)c2ccc3ncn(-c4cnn(C)c4)c(=O)c3c2)c1 [Compound 8]	1.58e-07 M
CNCCN(c1ccc2ncn(-c3cnn(C)c3)c(=O)c2c1)c1c(F)c(OC)cc(OC)c1F [Compound 20]	2.51e-08 M
COc1cc(OC)c(F)c(N(Cc2ncc[nH]2)c2ccc3ncn(-c4cnn(C)c4)c(=O)c3c2)c1F [Compound 22]	5.01e-09 M

Target: KDR (h) (Homo sapiens, UniProt P35968)
Experiment: KDR (VEGFR2) (enzymatic assay), TR-FRET
Assay type: biochemical
Conditions: 3 μM ATP; pIC50 = -log IC50 (M); read-out: VEGFR KDR pIC50 (converted)
Experimental: KDR (VEGFR2) (Enzymatic Assay)
In a final reaction volume of 30 μL, KDR (h) (150 ng/ml) was incubated with 50 mM HEPES pH 7.5, 6 mM MnCl2, 1 mM DTT, 0.1 mM Na3VO4, 0.01% Triton-X-100, 500 nM Btn-Flt3 and 3 μM ATP in the presence of compound (1% DMSO final). After incubation for 120 minutes at room temperature the reaction was stopped with 2.27 nM EU-anti P-Tyr, 7 mM EDTA, 31.25 nM SA-XL-665 and 0.02% BSA which was present for 60 minutes at room temperature. Time-Resolved Fluorescence Resonance Energy Transfer (TR-FRET) signal (ex340 nm. Em 620 nm, em 655 nm) was measured afterwards and results are expressed in RFU (Relative Fluorescence Units). In this assay, the inhibitory effect of different compound concentrations (range 10 μM to 0.1 nM) was determined and used to calculate an IC50 (M) and pIC50 (−log IC50) value.

Structure (SMILES)	IC50
COc1cc(OC)c(F)c(N(CCO)c2ccc3ncn(-c4cnn(C)c4)c(=O)c3c2)c1F [Compound 18]	3.98e-08 M
COc1cc(OC)cc(N(CCO)c2ccc3ncn(-c4cnn(C)c4)c(=O)c3c2)c1 [Compound 8]	7.94e-07 M
CNCCN(c1ccc2ncn(-c3cnn(C)c3)c(=O)c2c1)c1c(F)c(OC)cc(OC)c1F [Compound 20]	1.58e-07 M
COc1cc(OC)c(F)c(N(Cc2ncc[nH]2)c2ccc3ncn(-c4cnn(C)c4)c(=O)c3c2)c1F [Compound 22]	1.26e-07 M

Target: Ba/F3-FGFR4-transfected cells (Homo sapiens, UniProt P22455, cells depend on it, form not given)
Experiment: Ba/F3-FGFR4 cellular proliferation assay
Assay type: cell-based
Conditions: 24 hours, Alamar Blue
Experimental: Ba/F3-FGFR4 (Cellular Proliferation Assay)
as §1, with “Ba/F3-FGFR4-transfected” for “Ba/F3-KDR-transfected”
In this assay, the inhibitory effect of different compound concentrations (range 10 μM to 0.1 nM) was determined and used to calculate an IC50 (M) and pIC50 (−log IC50) value.

Structure (SMILES)	BAF3-FGFR4 (pIC50)
COc1cc(OC)c(F)c(N(CCO)c2ccc3ncn(-c4cnn(C)c4)c(=O)c3c2)c1F [Compound 18]	6.6
COc1cc(OC)cc(N(CCO)c2ccc3ncn(-c4cnn(C)c4)c(=O)c3c2)c1 [Compound 8]	5.2
CNCCN(c1ccc2ncn(-c3cnn(C)c3)c(=O)c2c1)c1c(F)c(OC)cc(OC)c1F [Compound 20]	6.7
COc1cc(OC)c(F)c(N(Cc2ncc[nH]2)c2ccc3ncn(-c4cnn(C)c4)c(=O)c3c2)c1F [Compound 22]	6.7

Tested on: not given
Experiment: not given
Conditions: not given

Structure (SMILES)	melting point
COc1cc(OC)c(F)c(N(CCO)c2ccc3ncn(-c4cnn(C)c4)c(=O)c3c2)c1F [Compound 18]	165 °C
COc1cc(OC)cc(N(CCO)c2ccc3ncn(-c4cnn(C)c4)c(=O)c3c2)c1 [Compound 8]	185 °C
CNCCN(c1ccc2ncn(-c3cnn(C)c3)c(=O)c2c1)c1c(F)c(OC)cc(OC)c1F [Compound 20]	141 °C
COc1cc(OC)c(F)c(N(Cc2ncc[nH]2)c2ccc3ncn(-c4cnn(C)c4)c(=O)c3c2)c1F [Compound 22]	231 °C

Target: T3, Ba/F3-FGFR3-transfected cells (Homo sapiens, UniProt P22607, cells depend on it, form not given)
T3 construct: BAF3-FGFR3 (MIN IL3 pIC50); other: minus IL3; 24 hours, Alamar Blue
Experiment: Ba/F3-FGFR3 (minus IL3 or plus IL3) cellular proliferation assay
Assay type: cell-based
Conditions: 24 hours, Alamar Blue
Experimental: Ba/F3-FGFR3 (Minus IL3 or Plus IL3) (Cellular Proliferation Assay)
as §1, with “Ba/F3-FGFR3-transfected” for “Ba/F3-KDR-transfected”
as §2

T3 sequence (P22607 whole entry, looked up, change not shown): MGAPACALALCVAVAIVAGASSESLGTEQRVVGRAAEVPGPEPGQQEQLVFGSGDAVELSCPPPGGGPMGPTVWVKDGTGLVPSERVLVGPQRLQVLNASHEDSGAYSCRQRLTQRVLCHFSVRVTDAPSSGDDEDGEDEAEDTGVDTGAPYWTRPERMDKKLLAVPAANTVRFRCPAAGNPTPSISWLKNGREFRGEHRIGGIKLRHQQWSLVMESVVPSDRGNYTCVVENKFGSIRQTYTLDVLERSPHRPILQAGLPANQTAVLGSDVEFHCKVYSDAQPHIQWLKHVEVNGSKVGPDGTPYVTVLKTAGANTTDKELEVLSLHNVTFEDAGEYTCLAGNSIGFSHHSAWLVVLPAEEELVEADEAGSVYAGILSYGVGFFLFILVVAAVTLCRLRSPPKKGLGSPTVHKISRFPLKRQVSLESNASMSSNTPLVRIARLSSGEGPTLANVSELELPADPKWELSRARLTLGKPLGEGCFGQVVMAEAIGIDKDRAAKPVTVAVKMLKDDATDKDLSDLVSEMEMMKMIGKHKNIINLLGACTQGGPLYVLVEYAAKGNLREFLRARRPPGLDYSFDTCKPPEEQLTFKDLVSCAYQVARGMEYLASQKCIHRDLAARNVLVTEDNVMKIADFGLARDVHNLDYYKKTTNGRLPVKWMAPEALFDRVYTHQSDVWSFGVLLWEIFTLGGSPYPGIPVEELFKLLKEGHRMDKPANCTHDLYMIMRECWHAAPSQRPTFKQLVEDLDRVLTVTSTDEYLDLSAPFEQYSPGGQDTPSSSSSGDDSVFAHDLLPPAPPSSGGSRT

Structure (SMILES)	BAF3-FGFR3 (MIN IL3 pIC50)
COc1cc(OC)c(F)c(N(CCO)c2ccc3ncn(-c4cnn(C)c4)c(=O)c3c2)c1F [Compound 18]	~7.68
COc1cc(OC)cc(N(CCO)c2ccc3ncn(-c4cnn(C)c4)c(=O)c3c2)c1 [Compound 8]	5.6
CNCCN(c1ccc2ncn(-c3cnn(C)c3)c(=O)c2c1)c1c(F)c(OC)cc(OC)c1F [Compound 20]	7.6
COc1cc(OC)c(F)c(N(Cc2ncc[nH]2)c2ccc3ncn(-c4cnn(C)c4)c(=O)c3c2)c1F [Compound 22]	7.4

Target: FGFR2 (h) (Homo sapiens, UniProt P21802)
Experiment: FGFR2 (enzymatic assay), TR-FRET
Assay type: biochemical
Conditions: 0.4 μM ATP; pIC50 = -log IC50 (M); read-out: FGFR 2 pIC50 (converted)

Structure (SMILES)	IC50
COc1cc(OC)c(F)c(N(CCO)c2ccc3ncn(-c4cnn(C)c4)c(=O)c3c2)c1F [Compound 18]	2.51e-09 M
COc1cc(OC)cc(N(CCO)c2ccc3ncn(-c4cnn(C)c4)c(=O)c3c2)c1 [Compound 8]	2.51e-08 M
CNCCN(c1ccc2ncn(-c3cnn(C)c3)c(=O)c2c1)c1c(F)c(OC)cc(OC)c1F [Compound 20]	1.26e-08 M
COc1cc(OC)c(F)c(N(Cc2ncc[nH]2)c2ccc3ncn(-c4cnn(C)c4)c(=O)c3c2)c1F [Compound 22]	5.01e-09 M
